What was measured:
[1] = system: Ouabain-Induced Arrythmia; assay: Activity against ouabain-induced arrythmia in guinea pigs; assay type: in vivo, Hartly male guinea pigs; conditions: ouabain 5 μg/kg/min; for Time required for ventricular extrasystole to occur: untreated 28.5 min; for Time required for ventricular fibrillation to occur: untreated 35.1 min; for Time required for cardiac arrest to occur: untreated 41.2 min
Method: Activity Against Ouabain-Induced Arrythmia in Guinea Pigs
Hartly male guinea pigs (5-6 wk. old, two animals per group) weighing about 350 g on average were anesthetized by intraperitoneal administration of 1.2 g/kg of urethane. A polyethylene cannula was inserted into both the cervical vein and the carotid artery; the drug was administered through the cervical vein while the blood pressure was measured at the carotid artery. A selected test compound was administered 5 minutes before the sustained intravenous infusion of the ouabain solution (5 μg/kg/min) as described in J. Pharmacol. Exp. Ther., 136, 227, 1962). Identification of arrythmia was made by the ECG in the second induction period; the appearance of a QRS complex with sharply downward deflictions was used as an indication of ventricular arrythmia and observation was continued until ventricular fibrillation and cardiac arrest appeared. The results are shown in Table 4 in terms of the times required for ventricular extrasystole, ventricular fibrillation and cardiac arrest to occur.

[2] = system: Chloroform-Induced Arrythmia; assay: Activity against chloroform-induced arrythmia in rats (prevention of ventricular fibrillation); assay type: in vivo, Sprague-Dowley male rats; conditions: for Percent prevention (ventricular fibrillation), starved: starved rats
Method: Activity Aganist Chloroform-Induced Arrythmia in Rats
The following procedures were substantially in accordance with the method of Erker and Baker (Arch. Int. Pharmacodyn., 243, 97-102, 1980). Aminophylline (20 mg/kg) was injected intramuscularly into two groups of Sprague-Dowley male rats (3-4 wk. old, 7 animals per group) weighing about 100 g on average, one group having been starved for 24 hours and the other group not starved. Thirty minutes after the injection, the animals were put into a 4,000-ml glass beaker with a lid that contained gauze impregnated with […] of chloroform. Fifty minutes later, the animals were recovered from the beaker and their chests were incised to check their hearts for the presence of ventricular fibrillation. The features of their cardiac rhythm were examined by the electrocardiogram. When no distinct fibrillation was observed, the heart was touched with tweezers. The heart was identified as fibrillar when rapid irregular twitchings occured on the surface of ventricles and continued for at least 5 seconds after chest incision or mechanical stimulation.
Selected compounds suspended in 3% gum arabic were administered in various doses to the rats either intraperitoneally (i.P.) or perorally (P.O.) 30 minutes prior to treatment with chloroform. The percent prevention of ventricular fibrillation was determined for each rat. Only a 3% gum arabic solution was administered to the control group.

[3] = system: Acetylcholine; assay: Activity against acetylcholine (II): inhibition of acetylcholine-induced saliva excretion; assay type: in vivo, Beagle dogs; conditions: dose 100 (g), intra-arterially, 1 min before acetylcholine
Method: Activity Against Acetylcholine (II)
Beagle dogs were anesthetized by intravenous administration of pentobarbital (35 mg/kg). The following experiment was conducted in accordance with the method of Sato et al. (Tohoku J. Exp. Med., 108, 377-388, 1982). The left lower jaw of each animal was incised to identify the submandibular gland, the duct through which saliva was excreted from that gland, and the artery nourishing the same gland. A polyethylene tube was first inserted into the excretory duct. Then, a cannula was inserted into the submandibular gland controlling artery and said gland was perfused with the arterial blood drawn from the femoral artery. The tube from the duct was connected to a drop counter and the number of drops of excreted saliva was recorded. The excretion of saliva was induced by intra-arterial administration of acetylcholine.
One minute before the acetylcholine administration, […] (0.1 ml) of a selected compound was administered intra-arterially and its ability to inhibit saliva excretion was examined.

[4] = system: Acetylcholine; assay: Activity against acetylcholine (I): inhibition of acetylcholine-induced contraction of isolated ilea; design: species or system SD/Slc male rats; conditions: 10^-4 M; 10^-6 M acetylcholine; isolated rat ilea
Method: Activity Against Acetylcholine (I)
SD/Slc male rats (10-mo. old, four animals per group) were clubbed dead and their ilea were immediately extracted. The ilea were suspended under a load of 1 g in a Krebs-Henseleit solution oxygenated with a mixture of 95% O2 +5% CO2 at 27° C., and the ileal reaction was measured isotonically.
The anti-cholinergic activity of each of the compounds tested was determined in terms of percent inhibition against the contractive reaction of 10^-6 M of acetylcholine (causing 60-70% of the maximum contractive reaction of acetylcholine).

[5] = system: Blood Sugar Level; assay: Effect on blood sugar level; assay type: in vivo, SD/Slc male rats; conditions: starved overnight
Method: Effect on Blood Sugar Level
After starving SD/Slc male rats (body weight, 250 g; 6 animals per group) overnight, 20-μl blood samples were drawn from the tail vein of each rat while it was not anesthetized. Records were taken of the sugar level in each blood sample. A selected compound of the present invention was suspended in 3% gum arabic and the suspension was administered perorally to each rat in an amount of 50 or 200 mg/kg. At 2, 4 and 6 hours of the administration, blood samples were taken and their blood sugar levels were measured. Measurements of blood sugar levels were conducted with a New Blood Sugar Test (Boehringer, Mannheim).
To the control group, a 3% gum arabic solution was administered, and diisopyramide was administered as a comparative drug.

[6] = system: Aconitine-Induced Arrythmia; assay: Activity against aconitine-induced arrythmia in rats; assay type: in vivo, Sprague-Dowley male rats; conditions: aconitine 1 μg/kg/min; for Time required for ventricular extrasystole to occur: untreated 14.3 min; for Time required for ventricular fibrillation to occur: untreated 35.3 min
Method: Activity Against Aconitine-Induced Arrythmia in Rats
Using Sprague-Dowley male rats (9-10 wk. old, two animals per group) weighing about 350 g on average, the following experiment was conducted substantially in compliance with the method of Vargftig et al. (Europ. J. Pharmacol., 6, 49, 1969).
The animals were anesthetized by intraperitoneal administration of 1 g/kg of urethane. A polyethylene cannula was inserted into both the femoral artery and vein of each animal; the drug was administered through the femoral vein while the blood pressure was measured at the femoral artery.
While the aconitine solution was continuously infused into the vein at a rate of 1 μg/kg/min, a selected compound was administered intravenously at 5-minute intervals. In order to prevent the aconitine-induced dyspnea from interfering with the experimental results, 0.2 mg/kg of d-tubocurarine was administered intravenously to each animal, which then was subjected to artificial respiration through a cannula inserted into the trachea (80 breathings/min, with 4 ml of air supplied by a single ventillation).
Identification of arrythmia was made by the ECG in the second induction period; the appearance of a QRS complex with sharply downward deflections was used as an indication of ventricular arrythmia and observation was continued until ventricular fibrillation appeared. The results are shown in Table 3 in terms of the times required for ventricular extrasystole and ventricular fibrillation to occur.

[7] = cited from earlier work
[8] = system: sleeping induced by hexobarbital; assay: Effect on the time of sleeping induced by hexobarbital; assay type: in vivo, ddY/Slc male rats; conditions: H3PO4 salt, untreated 53.9 ± 2.7
Method: Effect on the Time of Sleeping Induced by Hexobarbital
A selected compound of the present invention was administered perorally to ddY/Slc male rats (5-6 wk. old, 10 animals per group) in an amount of 50 or 100 mg/kg. One hour later, […] of hexobarbital was administered intraperitoneally to each animal, thereby causing the loss of orthogonal reflex. The time required for the recovery of orthogonal reflex was measured for each animal.
As comparative drugs, 50 or 100 mg/kg of disopyramide and 5 mg/kg of diazepam were administered perorally.

SMILES: Cc1cccc(C)c1NC(=O)CCNCCN(C(C)C)C(C)C [Compound No. 1, 3-(diisopropylaminoethylamino)-2',6'-dimethylpropionanilide]
- Time required for ventricular extrasystole to occur ([1]; 5 mg/kg via cervical vein): 42.1 min
- Time required for ventricular fibrillation to occur ([1]; 5 mg/kg via cervical vein): 45.4 min
- Time required for cardiac arrest to occur ([1]; 5 mg/kg via cervical vein): 51.3 min
- responders at 25 mg/kg ([2]; Rattus norvegicus, ip, 0.5 h, not starved rats, 25 mg/kg i.P., 30 min prior to chloroform, read-out: Percent prevention (ventricular fibrillation), not starved): 85.7%
- responders at 1 mg/kg ([2]; Rattus norvegicus, po, 0.5 h, not starved rats, 1 mg/kg P.O., 30 min prior to chloroform, read-out: Percent prevention (ventricular fibrillation), not starved): 85.7%
- Percent prevention (ventricular fibrillation), starved ([2]; 1 mg/kg P.O., 30 min prior to chloroform): 85.7%
- Percent inhibition (saliva excretion) [3]: 0%
- Percent inhibition (contractive reaction of acetylcholine) [4]: 20%
- Blood sugar level, 0 hr (mean ± S.E.) ([5]; 50 mg/kg perorally): 68.4 ± 4.0 mg/dL
- Blood sugar level, 2 hr (mean ± S.E.) ([5]; 50 mg/kg perorally): 63.0 ± 4.1 mg/dL
- Blood sugar level, 4 hr (mean ± S.E.) ([5]; 50 mg/kg perorally): 58.1 ± 2.2 mg/dL
- Blood sugar level, 6 hr (mean ± S.E.) ([5]; 50 mg/kg perorally): 59.9 ± 2.6 mg/dL
- Blood sugar level, 0 hr (mean ± S.E.) ([5]; 200 mg/kg perorally): 83.7 ± 3.0 mg/dL
- Blood sugar level, 2 hr (mean ± S.E.) ([5]; 200 mg/kg perorally): 55.4 ± 5.7 mg/dL
- Blood sugar level, 4 hr (mean ± S.E.) ([5]; 200 mg/kg perorally): 73.4 ± 7.2 mg/dL
- Blood sugar level, 6 hr (mean ± S.E.) ([5]; 200 mg/kg perorally): 71.2 ± 3.2 mg/dL
- Time required for ventricular extrasystole to occur ([6]; 5 mg/kg intravenously): 45.2 min
- Time required for ventricular fibrillation to occur ([6]; 5 mg/kg intravenously): > 120.0 min

SMILES: CC(C)N(CCC(C(N)=O)(c1ccccc1)c1ccccn1)C(C)C (centres unmarked) [Disopyramide, reference compound]
- Time required for ventricular extrasystole to occur ([1]; 10 mg/kg via cervical vein): 41.1 min
- Time required for ventricular fibrillation to occur ([1]; 10 mg/kg via cervical vein): 54.3 min
- Time required for cardiac arrest to occur ([1]; 10 mg/kg via cervical vein): 59.6 min
- action on the cardiac muscles ([7]; clinical): inhibitory action on the cardiac muscles
- undesirable side effects ([7]; clinical, presumably from anti-cholinergic action): hydrodipsia, anuresis, constipation, vertigo, blurring of vision and vomiting
- incidence of anuresis ([7]; patients with prostatomegaly and neurotic bladders due to diabetes): High incidence of anuresis
- activity in peroral administration ([7]; peroral, clinical): sustained activity
- responders at 10 mg/kg ([2]; Rattus norvegicus, po, 0.5 h, read-out: Percent prevention (ventricular fibrillation), not starved): 37.6%
- Percent prevention (ventricular fibrillation), starved ([2]; 10 mg/kg P.O., 30 min prior to chloroform): 49.6%
- Percent inhibition (saliva excretion) [3]: 41.7%
- Percent inhibition (contractive reaction of acetylcholine) [4]: 89%
- Blood sugar level, 0 hr (mean ± S.E.) ([5]; 50 mg/kg perorally): 75.2 ± 5.9 mg/dL
- Blood sugar level, 2 hr (mean ± S.E.) ([5]; 50 mg/kg perorally): 46.9 ± 1.7 mg/dL
- Blood sugar level, 4 hr (mean ± S.E.) ([5]; 50 mg/kg perorally): 41.9 ± 2.9 mg/dL
- Blood sugar level, 6 hr (mean ± S.E.) ([5]; 50 mg/kg perorally): 45.8 ± 2.0 mg/dL
- Blood sugar level, 0 hr (mean ± S.E.) ([5]; 200 mg/kg perorally): 64.5 ± 5.6 mg/dL
- Blood sugar level, 2 hr (mean ± S.E.) ([5]; 200 mg/kg perorally): 41.7 ± 3.1 mg/dL
- Blood sugar level, 4 hr (mean ± S.E.) ([5]; 200 mg/kg perorally): 29.7 ± 3.2 mg/dL
- Blood sugar level, 6 hr (mean ± S.E.) ([5]; 200 mg/kg perorally): 36.9 ± 2.6 mg/dL
- Time required for ventricular extrasystole to occur ([6]; 10 mg/kg intravenously): 22.6 min
- Time required for ventricular fibrillation to occur ([6]; 10 mg/kg intravenously): 78.2 min
- Time of sleeping (mean ± S.E.) ([8]; 50 mg/kg perorally): 59.8 ± 3.3 min
- Time of sleeping (mean ± S.E.) ([8]; 100 mg/kg perorally): 53.5 ± 2.4 min

Reference: patent US4855497A, “Novel diamine derivatives” (Chugai Seiyaku Kabushiki Kaisha, priority 1985, dated 1989)
